Assays:
HEK 293 cells = test: Primary screen of lipid reagents: plasmid DNA transfection, YFP fluorescence relative to total cell number (Hoechst); assay type: cell-based; details: for cell toxicity: Hoechst stained apoptotic nuclei, microscope images; for transfection efficiency: HEK 293 cells, plasmid DNA (YFP), 20 to 24 hours after transfection
Excerpt: Cell line: HEK 293 cells Screen format: 96-well Detection (read-out): YFP fluorescence relative to total cell number (total cell number assessed using the nuclear dye, Hoechst—see FIGS. 1 and 2)
A commercially available liposomal transfection reagent was used as a reference (reference reagent) according to manufacturers' instructions, see FIGS. 1 and 2.
All steps performed in 96 tube/plate format using 8- or 12-channel multi-pipettes. Amounts shown are for duplicate (2×) wells of a 96-well plate.
1. 0.8 μl lipid reagents diluted in 20 μl 50 mmol/l NaOAc buffer, pH 5.0. 2. Diluted lipid reagents from (1) were added to 150 ng DNA (25 ng pH2B-YFP+125 ng pCS-LacZ plasmids) in 20 μl NaOAc buffer, pH 5.0 and mixed with pipette action. 3. After 30 min incubation at RT, added 100 μl freshly resuspended cells (5×10^4 cells/well DMEM culture medium supplemented with 10% fetal calf serum) and mixed with pipette. 4. Duplicate 65 μl aliquots of the cells+lipid/DNA complexes were immediately transferred to separate wells of a 96-well culture plate and placed in 37° C. incubator with 5% CO2. 5. 20 to 24 hours after initial transfection of cells, Hoechst 33258 dye was added to cells at a final concentration of 0.2 μg/ml and cells incubated for a further 30 min at 37° C. Cells were then placed on an inverted microscope and 2 independent sets of images of the cells captured from each well as shown in FIGS. 1 and 2.
For each sample, 3 images were captured: bright field image of cells (FIGS. 1 and 2 upper panels), Hoechst dye stained image of total cell nuclei (FIGS. 1 and 2 middle panels) and YFP images showing cells successfully transfected with plasmid DNA and expressing YFP protein (FIGS. 1 and 2 lower panels). Microscope images of transfected HEK 293 cells, showing both the transfection efficiency and toxicity level of two of our lipid molecules (#30 and #60) compared to a commonly used commercial transfection reagent (reference reagent).

[1] = tested on: mouse embryonic fibroblast (MEF) cells; test: Transfection of LRP6 siRNA in MEF cells, Western Blot of LRP6 protein; assay type: cell-based; details: for siRNA mediated gene silencing compared with the commercial reagent A: LRP6 siRNA, MEF cells cultured for 24 hours, Western Blot; for ability to deliver siRNA molecules to cells: see FIGS. 5 and 6
Protocol: In order to screen for this two different types of cells were used to test the ability of our lipid reagents to deliver siRNA targeting Low density lipoprotein receptor related protein 6 (LRP6). This is a 200 kD single-pass transmembrane receptor for Wnt ligands and activates the Wnt/b-catenin signalling pathway. It is expressed at relatively high levels in MEF cells.
Assay: Transfection of siRNA in mouse embryonic fibroblast (MEF) cells
All steps performed in 0.2 ml PCR tubes and 96 well plate format. Amounts shown are for one well of a 96-well plate.
1. 0.25 μl lipid reagents diluted in 8 μl 50 mmol/l NaOAc buffer, pH 5.0. 2. Diluted lipid reagents from (1) added to 1 pmol (0.2 μl of 5 μmol/1) siRNA molecules in 8 μl NaOAc buffer, pH 5.0 and mixed with pipette action. The siRNA molecules used had either a scrambled sequence not specific for any known gene (Con siRNA), or a sequence specifically targeting the endogenous mRNA from the LRP6 gene (LRP6 siRNA). 3. After 30 min incubation at RT, added 50 μl freshly resuspended cells (2×10^4 cells/well DMEM culture medium supplemented with 10% fetal calf serum) in one well of a 96-well plate and placed in 37° C. incubator with 5% CO2. 4. 24 hours after initial transfection, cells, were lysed in 25 μl detergent buffer (50 mmol/l Tris, 1% Triton X-100, 0.15 mol/l NaCl, pH 7.0, containing protease and phosphatase inhibitors), spun to remove insoluble cell debris and […] clarified lysates added to 10 μl of 4× SDS loading buffer (250 mmol/l Tris HCl, 40% Glycerol, 8% SDS, 0.01% Bromophenol Blue, 5% 2-Mercaptoethanol, pH 6.8). 5. Samples were denatures by heating at 96° C. for 2 min and 12 μl loaded on a 9% SDS-PAGE gels for separation of proteins according to molecular weight. Separated proteins were transferred from the SDS-PAGE gel to nitrocellulose membrane for Western Blot (WB) analysis. 6. WB was performed using an automated BioLane HTI instrument using antibodies against LRP6 and α-tubublin proteins. HRP linked secondary antibodies and chemiluminescence were used to detect the proteins on the membrane.
FIGS. 5 and 6 show the Western Blot (WB) analysis of LRP6 protein from total lysates of MEF (mouse embryonic fibroblast) cells transfected with the indicated siRNA molecules and cultured for 24 hours.

Structure (SMILES)	cell toxicity (HEK 293 cells)	siRNA mediated gene silencing compared with the commercial reagent A [1]	ability to deliver siRNA molecules to cells [1]	transfection efficiency (HEK 293 cells)
CCCCCCCCCCCSCC(CNC(=O)NCCN(C)C)SCCCCCCCCCCC (stereo not shown) [Example 24, 1-(2,3-bis(undecylthio)propyl)-3-(2-(dimethylamino)ethyl)urea]	very low toxicity	quite effective	very efficiently deliver siRNA molecules to cells	–
CCCCCCCCCCCCSCC(COCC(O)CNCCCN(CC)CC)SCCCCCCCCCCCC (stereo not shown) [Example 60, 13-(dodecylthio)-3-ethyl-11-oxa-15-thia-3,7-diazaheptacosan-9-ol]	low cell toxicity	–	–	approximately 90%
CCCCCCCCCCCSCC(CNC(=O)NCCCN(CC)CC)SCCCCCCCCCCC (stereo not shown) [Example 30, 1-(2,3-bis(undecylthio)propyl)-3-(3-(diethylamino)propyl)urea]	low cell toxicity	–	–	approximately 90%
CCCCCCCCCCCSCC(COCC(O)CNCCN(CC)CC)SCCCCCCCCCCC (stereo not shown) [Example 64, 3-ethyl-12-(undecylthio)-10-oxa-14-thia-3,6-diazapentacosan-8-ol]	very low toxicity	quite effective	very efficiently deliver siRNA molecules to cells	–

Source: patent US20170204076A1, “SYNTHESIS AND USE OF AMINO LIPIDS” (INCELLA GMBH, priority 2014, published 2017)
